The structures appear in SMILES notation. Residues, ends and D or L forms follow the SMILES beside them.

Broadly, the half-life is the time in which the quantity being followed falls by half.

The nature of series [1]: Sweetening potency: taste comparison of aqueous solutions with sucrose control solution (2%, 5% or 10%) by a group of eight experienced people. In kind it is in vivo. From the text:
The sweetening potency of the compounds described in the examples has been evaluated by a group of eight experienced people. For this, the compound, in aqueous solution at varying concentrations, is compared, with respect to taste, to a control solution of sucrose of concentration 2%, 5%, or 10%. The sweetening potency of the test compound compared with sucrose then corresponds to the weight ratio between the compound and sucrose for equal sweetening intensity, i.e. when the sweet tastes of the solution of the test compound and the control solution of sucrose are considered by a majority of people to have the same sweetening intensity.

Series [2] is described as follows: Accelerated ageing in acidic medium (phosphate buffer pH 3, 70° C.), HPLC of product remaining. The class given is physicochemical. The following applies: aqueous solution, read-out: half-life (time corresponding to 50% degradation) (converted). On the procedure:
(§1) The stability of the compounds of the invention and aspartame was measured by determining, using high performance liquid chromatography (HPLC), the amount of product remaining after an accelerated ageing in acidic medium (phosphate buffer at pH 3) or in neutral medium (phosphate buffer at pH 7) and at the temperature of 70° C. The stability of the compound thus tested is evaluated by its half-life (time corresponding to 50% degradation).
Given in the annexed FIG. 1 is a comparative diagram of the stability curves of aspartame (curve 1) and of the N--(3,3-dimethylbutyl)-L-aspartyl-D-α-aminobutyric acid N--(S)-1-phenyl-1-propanamide of the present invention (curve 2) obtained during an accelerated ageing by heating their solutions in acidic medium at pH 3 (phosphate buffer) at 70° C.

The nature of series [3]: Accelerated ageing in neutral medium (phosphate buffer pH 7, 70° C.), HPLC of product remaining. In kind it is physicochemical. The following applies: for half-life: phosphate buffer, read-out: half-life (time corresponding to 50% degradation) (converted). On the procedure: as §1
Given in the annexed FIG. 2 is a comparative diagram of the stability curves of aspartame (curve 1) and of the N-(3,3-dimethylbutyl)-L-aspartyl-D-α-aminobutyric acid N--(S)-1-phenyl-1-propanamide of the invention (curve 2) obtained during an accelerated ageing by heating their solutions in neutral media of pH 7 at 70° C.

A short description of series [4]: Sweetening comparison with aspartame (equivalent sweetness of solutions / soft drink). In kind it is in vivo. The following applies: for concentration of aqueous solution of equivalent sweetening potency: 20 mg/L compound equivalent to 550 mg/L aspartame; for quantity of sweetening agent in one liter of soft drink for replacement: identical organoleptic qualities. On the procedure: From the fact of their high sweetening potency, another advantage of the compounds of the invention compared to aspartame is to allow, in their application to food products, the use of very low quantities of active agent. It is therefore for example that it is possible to replace, in one liter of soft drink, 550 mg of aspartame by about 20 mg of the N-(3,3-dimethylbutyl)-L-aspartyl-D-α-aminobutyric acid N--(S)-1-phenyl-1-propanamide of the invention, and to therefore reduce by about 27 times the quantities of sweetening agent consumed, always in maintaining the identical organoleptic qualities.

The conditions of series [5]: cited from earlier work.
Setting [6] is: with respect to a 2% sucrose solution.

Turning to `CC[C@H](NC(=O)[C@H](NC(=O)[C@H](CC(=O)O)NCCC(C)(C)C)C(C)C)c1ccccc1` [N-(3,3-dimethylbutyl)-L-aspartyl-D-valine N--(S)-1-phenyl-1-propanamide], the Sweetening potency result in series [1] (setting [6]) is given as “about 3,000 times that of sucrose on a weight basis”; in series [1] (with respect to a 2% sucrose solution, listed as Y = (CH3)2 CH, R" = (S) CH(C2 H5) C6 H5), 3,000 times that of sucrose on a wei.
For the compound `COC[C@H](NC(=O)[C@H](NC(=O)[C@H](CC(=O)O)NCCC(C)(C)C)C(C)C)c1ccccc1` [N-(3,3-dimethylbutyl)-L-aspartyl-D-valine N--(S)-1-phenyl-2-methoxy-1-ethanamide], the Sweetening potency entry in series [1] (setting [6]) is “about 4,000 times that of sucrose on a weight basis”; in series [1] (with respect to a 2% sucrose solution, listed as Y = (CH3)2 CH, R" = (R) CH(CH2 OCH3)C6 H5), 4,000 times that of sucrose on a wei.
`CC[C@H](NC(=O)[C@@H](CC)NC(=O)[C@H](CC(=O)O)NCCC(C)(C)C)c1ccccc1` [N-(3,3-dimethylbutyl)-L-aspartyl-D-α-aminobutyric acid N--(S)-1-phenyl-1-propanamide]: the half-life in series [2] was ~72 h; in series [3] (pH 7, 70° C.), ~288 h. Besides, the “stability compared with aspartame” value in series [3] (pH 7, 70° C., ratio to aspartame) is “about 1,700 times”. Besides, the “concentration of aqueous solution of equivalent sweetening potency” value in series [4] was 20 µg/mL. In series [4] (20 mg/L of compound vs 550 mg/L of aspartame, aqueous solution), the “sweetening potency compared with aspartame” value is given as “about 27 times”. For the same compound, in series [4], the “quantity of sweetening agent in one liter of soft drink for replacement” value is “about 20 mg”. In series [4] (soft drink, vs aspartame), the “reduction of quantity of sweetening agent consumed vs aspartame” value is recorded as “about 27 times”. The Sweetening potency is ~6,000 times that of sucrose on a wei in series [1] (by comparison with a 5% solution of sucrose); ~5,000 times that of sucrose on a wei in series [1] (by comparison with a 10% solution of sucrose); 8,000 times that of sucrose on a wei in series [1] (with respect to a 2% sucrose solution, listed as Y = C2 H5, R" = (S) CH(C2 H5) C6 H5).
With `CC[C@@H](NC(=O)[C@H](CC(=O)O)NCCC(C)(C)C)C(=O)N[C@@H](COC)c1ccccc1` [N-(3,3-dimethylbutyl)-L-aspartyl-D-α-aminobutyric acid N--(S)-1-phenyl-2-methoxy-1-ethanamide], the Sweetening potency result was “about 4,000 times that of sucrose on a weight basis” in series [1] (setting [6]) and 4,000 times that of sucrose on a wei in series [1] (with respect to a 2% sucrose solution, listed as Y = C2 H5, R" = (R) CH(CH2 OCH3)C6 H5).
Take `C[C@@H](NC(=O)[C@H](CC(=O)O)NCCC(C)(C)C)C(=O)NC(C1CC1)C1CC1` [N-(3,3-dimethylbutyl)-L-aspartyl-N-(dicyclopropylcarbinyl)-D-alaninamide]: in series [5] (setting [6]), the “sweetening potency (prior art, FR 92 13615)” value was 2,500 times that of sucrose on a weight basis.
As for `CC[C@@H](NC(=O)[C@H](CC(=O)O)NCCC(C)(C)C)C(=O)N[C@@H](C)c1ccccc1` [Y = C2 H5, R" = (S) CH(CH3)C6 H5], the Sweetening potency in series [1] (setting [6]) was 2,000 times that of sucrose on a wei.
For `COC(=O)[C@H](Cc1ccccc1)NC(=O)[C@@H](N)CC(=O)O` [aspartame, L-aspartyl-L-phenylalanine methyl ester, reference compound] (HELM PEPTIDE1{D.F.[CO[*:1]]}$$$$V2.0), the “sweetening potency (prior art)” value in series [5] (aspartame, background, sucrose concentration not stated) is 120 to 180 times that of sucrose on a weight basis. The half-life in series [2] is ~24 h. The “stability in neutral solution” value in series [3] (neutral solution, pH about 7) is “very little stable”. Also, the half-life in series [3] (pH 7, 70° C.) was 0.167 h. Moreover, in series [4], the “concentration of aqueous solution of equivalent sweetening potency” value amounted to 550 µg/mL and the “quantity of sweetening agent in one liter of soft drink for replacement” value was found to be 550 mg.
